Measured values from US7741319B2 (Spirogen Limited, priority 2004, dated 2010).

Tested on: K562 human chronic myeloid leukaemia cells
Test: In vitro cytotoxicity, MTT assay in K562 cells
Format: cell-based
Experimental: K562 human chronic myeloid leukaemia cells were maintained in RPM1 1640 medium supplemented with 10% fetal calf serum and 2 mM glutamine at 37° C. in a humidified atmosphere containing 5% CO2 and were incubated with a specified dose of drug for 1 hour or 96 hours at 37° C. in the dark. The incubation was terminated by centrifugation (5 min, 300 g) and the cells were washed once with drug-free medium. Following the appropriate drug treatment, the cells were transferred to 96-well microtiter plates (10^4 cells per well, 8 wells per sample). Plates were then kept in the dark at 37° C. in a humidified atmosphere containing 5% CO2. The assay is based on the ability of viable cells to reduce a yellow soluble tetrazolium salt, 3-(4,5-dimethylthiazol-2-yl)-2,5-diphenyl-2H-tetrazolium bromide (MTT, Aldrich-Sigma), to an insoluble purple formazan precipitate. Following incubation of the plates for 4 days (to allow control cells to increase in number by approximately 10 fold), 20 μL of MTT solution (5 mg/mL in phosphate-buffered saline) was added to each well and the plates further incubated for 5 h. The plates were then centrifuged for 5 min at 300 g and the bulk of the medium pipetted from the cell pellet leaving 10-20 μL per well. DMSO (200 μL) was added to each well and the samples agitated to ensure complete mixing. The optical density was then read at a wavelength of 550 nm on a Titertek Multiscan ELISA plate reader, and a dose-response curve was constructed. For each curve, an IC50 value was read as the dose required to reduce the final optical density to 50% of the control value.

SMILES	IC50 (K562, 1 h, 1 hour incubation) [nM]	further results
COc1cc2c(cc1OCCCOc1cc3c(cc1OC)C(=O)N1C=C(/C=C/C(=O)N(C)C)C[C@H]1C=N3)N=C[C@@H]1CC(/C=C/C(=O)N(C)C)=CN1C2=O	3800 ± 440	
C/C=C/C1=CN2C(=O)c3cc(OC)c(OC)cc3N=C[C@@H]2C1 [Compound 30q, (11aS)-7,8-Dimethoxy-2-(1-propenyl)-1,11a-dihydro-5H-pyrrolo[2,1-c][1,4]benzodiazepin-5-one]		IC50 (K562, 96 h, 96 hour incubation period, threshold less than 10 nM): < 10 nM; IC50 (K562, 96 h, 96 hour incubation period, threshold less than 1 μM): < 1000 nM
COc1ccc(C2=CN3C(=O)c4cc(OC)c(OCCCOc5cc6c(cc5OC)C(=O)N5C=C(c7ccc(OC)cc7)C[C@H]5C=N6)cc4N=C[C@@H]3C2)cc1 [ZC-207, 1,1′-[[(Propane-1,3-diyl)dioxy]bis[(11aS)-7-methoxy-2-(p-methoxybenzene)-1,11a-dihydro-5H-pyrrolo[2,1-c][1,4]benzodiazepine-5-one]]]	5.3 ± 4.9	
COc1cc2c(cc1OCCCOc1cc3c(cc1OC)C(=O)N1C=C(C#Cc4ccccc4)C[C@H]1C=N3)N=C[C@@H]1CC(C#Cc3ccccc3)=CN1C2=O [ZC-209]	< 10	
C/C=C/C1=CN2C(=O)c3cc(OC)c(OCCCOc4cc5c(cc4OC)C(=O)N4C=C(/C=C/C)C[C@H]4C=N5)cc3N=C[C@@H]2C1 [ZC-211]		IC50 (1 hour incubation): < 10 nM
